According to US8507514B2, “Hydrazide compound and use of the same in pest control” (Sumitomo Chemical Company, Limited, priority 2009, dated 2013):

Columns and labels:
Spodoptela litura = experiment: Test Example 4: Spodoptela litura larvae on treated artificial diet; assay type: in vivo; conditions: 144 h; 500 ppm test solution, 2 mL on artificial diet Insecta LF; 5 fourth instar larvae; after 6 days; read-out: pest death rate
Experimental: (§1) Formulations of some compounds of the present invention were obtained according to Formulation Example 5. The formulation was diluted with water to prepare a test solution having 500 ppm of the active ingredient.
A filter paper having a diameter of 5.5 cm was spread on the bottom of a polyethylene cup having a diameter of 5.5 cm. Insecta LF (manufactured by NOSAN CORPORATION), an artificial diet, was sliced to 6 mm in thickness, cut into half, and then placed on the filter paper. Then, 2 mL of the test solution was poured into the polyethylene cup. After the test solution was air-dried, 5 fourth instar larvae of Spodoptela litura were released into the polyethylene cup and the cup was sealed with a lid. After 6 days, the number of surviving or dead Spodoptela litura was counted and a pest death rate was calculated according to the following equation. Pest death rate(%)=(Number of dead larvae/Number of tested larvae)×100

Musca domestica = experiment: Test Example 1: Musca domestica filter paper/sucrose bait test; assay type: in vivo; conditions: 500 ppm test solution, 0.7 ml on filter paper with sucrose bait, 10 female imagoes, after 24 hours, read-out: pest death rate
Experimental: as §1
A filter paper having a diameter of 5.5 cm was spread on the bottom of a polyethylene cup having a diameter of 5.5 cm and 0.7 ml of the test solution was added dropwise onto the filter paper. As a bait, 30 mg of sucrose was uniformly placed on the filter paper. Into the polyethylene cup, 10 female imagoes of Musca domestica were released and the cup was sealed with a lid. After 24 hours, the number of surviving or dead Musca domestica was counted and a pest death rate was calculated according to the following equation. Pest death rate(%)=(Number of dead imagoes/Number of tested imagoes)×100

| Structure (SMILES) | pest or weed control at 500 ppm (Spodoptela litura) | pest or weed control at 500 ppm (Musca domestica) |
| --- | --- | --- |
| CC(=O)NN(C(=O)OC(C)(C)C)c1cccc(C2=NOC(c3cc(Cl)cc(Cl)c3)(C(F)(F)F)C2)c1 (stereo not shown) [(1)] | ≥ 80% | 100% |
| CC(=O)NN(C)c1cccc(C2=NOC(c3cc(Cl)cc(Cl)c3)(C(F)(F)F)C2)c1 (stereo not shown) [(5)] | ≥ 80% |  |
| O=C(CC(F)(F)F)NNc1cccc(C2=NOC(c3cc(Cl)cc(Cl)c3)(C(F)(F)F)C2)c1 (stereo not shown) [(7)] |  | 100% |
| Cc1ccc(C2=NOC(c3cc(Cl)cc(Cl)c3)(C(F)(F)F)C2)cc1NNC(=O)CC(F)(F)F (stereo not shown) [(8)] |  | 100% |
| O=C(CC(F)(F)F)NNc1cc(C2=NOC(c3cc(Cl)cc(Cl)c3)(C(F)(F)F)C2)ccc1F (stereo not shown) [(10)] |  | 100% |
| O=C(CC(F)(F)F)NNc1cc(C2=NOC(c3cc(Cl)cc(Cl)c3)(C(F)(F)F)C2)ccc1Cl (stereo not shown) [(11)] |  | 100% |
| CC(C)CC(=O)NNc1cc(C2=NOC(c3cc(Cl)cc(Cl)c3)(C(F)(F)F)C2)ccc1Cl (stereo not shown) [(15)] |  | 100% |
| CC(C)(C)C(=O)NNc1cc(C2=NOC(c3cc(Cl)cc(Cl)c3)(C(F)(F)F)C2)ccc1Cl (stereo not shown) [(23)] |  | 100% |
| O=C(Cc1ccccc1)NNc1cc(C2=NOC(c3cc(Cl)cc(Cl)c3)(C(F)(F)F)C2)ccc1Cl (stereo not shown) [(26)] | ≥ 80% |  |
| O=C(CCCBr)NNc1cc(C2=NOC(c3cc(Cl)cc(Cl)c3)(C(F)(F)F)C2)ccc1Cl (stereo not shown) [(34)] | ≥ 80% |  |
| O=C(CCCC(F)(F)F)NNc1cc(C2=NOC(c3cc(Cl)cc(Cl)c3)(C(F)(F)F)C2)ccc1Cl (stereo not shown) [(36)] | ≥ 80% | 100% |
| COCC(=O)NNc1cc(C2=NOC(c3cc(Cl)cc(Cl)c3)(C(F)(F)F)C2)ccc1Cl (stereo not shown) [(38)] | ≥ 80% | 100% |
| CC(C)(CCl)C(=O)NNc1cc(C2=NOC(c3cc(Cl)cc(Cl)c3)(C(F)(F)F)C2)ccc1Cl (stereo not shown) [(40)] | ≥ 80% | 100% |
| CC(=O)N(NC(=O)CCC(F)(F)F)c1cc(C2=NOC(c3cc(Cl)cc(Cl)c3)(C(F)(F)F)C2)ccc1Cl (stereo not shown) [(53)] | ≥ 80% |  |
| COCC(=O)NN(C(=O)c1ccccc1)c1cc(C2=NOC(c3cc(Cl)cc(Cl)c3)(C(F)(F)F)C2)ccc1Cl (stereo not shown) [(57)] | ≥ 80% |  |
